Test results from the CheMixHub viscosity set.
“And” between values parts separate entries of the source, which are not always exact repeats. Equal entries are not always repeated. ± gives the uncertainty stated by the source.

Experiment: xn = mol fraction of the nth substance listed

COC(C)(C)C + CCCCCC
viscosity (303.15 K, 101 kPa, x1 = 0.1579): 0.314 ± 0.003 mPa·s | viscosity (303.15 K, 101 kPa, x1 = 0.2829): 0.318 ± 0.003 mPa·s | viscosity (303.15 K, 101 kPa, x1 = 0.3671): 0.321 ± 0.003 mPa·s | viscosity (303.15 K, 101 kPa, x1 = 0.4436): 0.323 ± 0.003 mPa·s | viscosity (303.15 K, 101 kPa, x1 = 0.5404): 0.327 ± 0.003 mPa·s | viscosity (303.15 K, 101 kPa, x1 = 0.604): 0.33 ± 0.003 mPa·s | viscosity (303.15 K, 101 kPa, x1 = 0.7122): 0.335 ± 0.003 mPa·s | viscosity (303.15 K, 101 kPa, x1 = 0.8674): 0.342 ± 0.003 mPa·s

CCc1ccccc1 + c1ccccc1
viscosity (293.15 K, 101.33 kPa, x2 = 0.2323): 0.657 ± 0.0058 mPa·s | viscosity (293.15 K, 101.33 kPa, x2 = 0.4707): 0.646 ± 0.0057 mPa·s | viscosity (293.15 K, 101.33 kPa, x2 = 0.5427): 0.644 ± 0.0057 mPa·s | viscosity (293.15 K, 101.33 kPa, x2 = 0.7124): 0.635 ± 0.0057 mPa·s | viscosity (293.15 K, 101.33 kPa, x2 = 0.8608): 0.64 ± 0.0057 mPa·s | viscosity (298.15 K, 101.3 kPa, x2 = 0.0268): 0.632 ± 0.0054 mPa·s | viscosity (298.15 K, 101.3 kPa, x2 = 0.1358): 0.6249 ± 0.0053 mPa·s | viscosity (298.15 K, 101.3 kPa, x2 = 0.2562): 0.6202 ± 0.0053 mPa·s | viscosity (298.15 K, 101.3 kPa, x2 = 0.3579): 0.6177 ± 0.0053 mPa·s | viscosity (298.15 K, 101.3 kPa, x2 = 0.4426): 0.6157 ± 0.0053 mPa·s | viscosity (298.15 K, 101.3 kPa, x2 = 0.5472): 0.6134 ± 0.0052 mPa·s | viscosity (298.15 K, 101.3 kPa, x2 = 0.6302): 0.6115 ± 0.0052 mPa·s | viscosity (298.15 K, 101.3 kPa, x2 = 0.7423): 0.608 ± 0.0052 mPa·s | viscosity (298.15 K, 101.3 kPa, x2 = 0.8318): 0.6056 ± 0.0052 mPa·s | viscosity (298.15 K, 101.3 kPa, x2 = 0.9404): 0.6027 ± 0.0052 mPa·s | viscosity (298.15 K, 101.33 kPa, x1 = 0.1): 0.599 ± 0.016 mPa·s | viscosity (298.15 K, 101.33 kPa, x1 = 0.2): 0.601 ± 0.006 mPa·s and 0.601 ± 0.016 mPa·s | viscosity (298.15 K, 101.33 kPa, x1 = 0.4): 0.603 ± 0.016 mPa·s | viscosity (298.15 K, 101.33 kPa, x1 = 0.5): 0.607 ± 0.0061 mPa·s and 0.607 ± 0.016 mPa·s | viscosity (298.15 K, 101.33 kPa, x1 = 0.6): 0.608 ± 0.016 mPa·s | viscosity (298.15 K, 101.33 kPa, x1 = 0.8): 0.616 ± 0.017 mPa·s | viscosity (298.15 K, 101.33 kPa, x2 = 0.145): 0.6185 ± 0.0062 mPa·s | viscosity (298.15 K, 101.33 kPa, x2 = 0.2147): 0.6165 ± 0.0062 mPa·s | viscosity (298.15 K, 101.33 kPa, x2 = 0.2942): 0.6156 ± 0.0062 mPa·s | viscosity (298.15 K, 101.33 kPa, x2 = 0.4187): 0.6078 ± 0.0061 mPa·s | viscosity (298.15 K, 101.33 kPa, x2 = 0.4944): 0.6057 ± 0.0061 mPa·s | viscosity (298.15 K, 101.33 kPa, x2 = 0.5926): 0.6038 ± 0.006 mPa·s | viscosity (298.15 K, 101.33 kPa, x2 = 0.6887): 0.6029 ± 0.006 mPa·s | viscosity (298.15 K, 101.33 kPa, x2 = 0.7786): 0.6012 ± 0.006 mPa·s | viscosity (298.15 K, 101.33 kPa, x2 = 0.8938): 0.6006 ± 0.006 mPa·s | viscosity (298.15 K, 101.33 kPa, x2 = 0.9568): 0.6008 ± 0.006 mPa·s | viscosity (303.15 K, 101.3 kPa, x2 = 0.1358): 0.5881 ± 0.0051 mPa·s | viscosity (303.15 K, 101.3 kPa, x2 = 0.2562): 0.5827 ± 0.005 mPa·s | viscosity (303.15 K, 101.3 kPa, x2 = 0.3579): 0.5777 ± 0.005 mPa·s | viscosity (303.15 K, 101.3 kPa, x2 = 0.4426): 0.5744 ± 0.005 mPa·s | viscosity (303.15 K, 101.3 kPa, x2 = 0.5472): 0.571 ± 0.005 mPa·s | viscosity (303.15 K, 101.3 kPa, x2 = 0.6302): 0.5678 ± 0.005 mPa·s | viscosity (303.15 K, 101.3 kPa, x2 = 0.7423): 0.5637 ± 0.0049 mPa·s | viscosity (303.15 K, 101.3 kPa, x2 = 0.8318): 0.5608 ± 0.0049 mPa·s | viscosity (303.15 K, 101.3 kPa, x2 = 0.9404): 0.5574 ± 0.0049 mPa·s | viscosity (303.15 K, 101.33 kPa, x2 = 0.2323): 0.583 ± 0.0053 mPa·s | viscosity (303.15 K, 101.33 kPa, x2 = 0.4707): 0.57 ± 0.0052 mPa·s | viscosity (303.15 K, 101.33 kPa, x2 = 0.5427): 0.568 ± 0.0052 mPa·s | viscosity (303.15 K, 101.33 kPa, x2 = 0.7124): 0.56 ± 0.0051 mPa·s | viscosity (303.15 K, 101.33 kPa, x2 = 0.8608): 0.561 ± 0.0051 mPa·s | viscosity (308.15 K, 101.33 kPa, x1 = 0.1): 0.528 ± 0.014 mPa·s | viscosity (308.15 K, 101.33 kPa, x1 = 0.2): 0.53 ± 0.014 mPa·s | viscosity (308.15 K, 101.33 kPa, x1 = 0.4): 0.535 ± 0.014 mPa·s | viscosity (308.15 K, 101.33 kPa, x1 = 0.6): 0.542 ± 0.015 mPa·s | viscosity (308.15 K, 101.33 kPa, x1 = 0.8): 0.551 ± 0.015 mPa·s | viscosity (313.15 K, 101.33 kPa, x2 = 0.2323): 0.521 ± 0.0048 mPa·s | viscosity (313.15 K, 101.33 kPa, x2 = 0.5427): 0.506 ± 0.0047 mPa·s | viscosity (313.15 K, 101.33 kPa, x2 = 0.7124): 0.498 ± 0.0046 mPa·s | viscosity (313.15 K, 101.33 kPa, x2 = 0.8608): 0.493 ± 0.0046 mPa·s | viscosity (318.15 K, 101.33 kPa, x1 = 0.1): 0.468 ± 0.013 mPa·s | viscosity (318.15 K, 101.33 kPa, x1 = 0.2): 0.471 ± 0.013 mPa·s | viscosity (318.15 K, 101.33 kPa, x1 = 0.4): 0.477 ± 0.013 mPa·s | viscosity (318.15 K, 101.33 kPa, x1 = 0.5): 0.481 ± 0.013 mPa·s | viscosity (318.15 K, 101.33 kPa, x1 = 0.6): 0.484 ± 0.013 mPa·s | viscosity (318.15 K, 101.33 kPa, x1 = 0.8): 0.492 ± 0.013 mPa·s | viscosity (318.15 K, 101.33 kPa, x2 = 0.145): 0.4939 ± 0.0049 mPa·s | viscosity (318.15 K, 101.33 kPa, x2 = 0.2147): 0.4912 ± 0.0049 mPa·s | viscosity (318.15 K, 101.33 kPa, x2 = 0.2942): 0.4912 ± 0.0049 mPa·s | viscosity (318.15 K, 101.33 kPa, x2 = 0.4187): 0.4812 ± 0.0048 mPa·s | viscosity (318.15 K, 101.33 kPa, x2 = 0.4944): 0.4774 ± 0.0048 mPa·s | viscosity (318.15 K, 101.33 kPa, x2 = 0.5926): 0.4737 ± 0.0047 mPa·s | viscosity (318.15 K, 101.33 kPa, x2 = 0.6887): 0.469 ± 0.0047 mPa·s | viscosity (318.15 K, 101.33 kPa, x2 = 0.7786): 0.4657 ± 0.0047 mPa·s | viscosity (318.15 K, 101.33 kPa, x2 = 0.8938): 0.4621 ± 0.0046 mPa·s | viscosity (318.15 K, 101.33 kPa, x2 = 0.9568): 0.4607 ± 0.0046 mPa·s | viscosity (323.15 K, 101.33 kPa, x1 = 0.1): 0.44 ± 0.012 mPa·s | viscosity (323.15 K, 101.33 kPa, x1 = 0.2): 0.443 ± 0.0044 mPa·s and 0.443 ± 0.012 mPa·s | viscosity (323.15 K, 101.33 kPa, x1 = 0.4): 0.449 ± 0.012 mPa·s | viscosity (323.15 K, 101.33 kPa, x1 = 0.5): 0.453 ± 0.0045 mPa·s and 0.453 ± 0.012 mPa·s | viscosity (323.15 K, 101.33 kPa, x1 = 0.6): 0.456 ± 0.012 mPa·s | viscosity (323.15 K, 101.33 kPa, x1 = 0.8): 0.466 ± 0.013 mPa·s | viscosity (323.15 K, 101.33 kPa, x2 = 0.2323): 0.469 ± 0.0044 mPa·s | viscosity (323.15 K, 101.33 kPa, x2 = 0.4707): 0.456 ± 0.0043 mPa·s | viscosity (323.15 K, 101.33 kPa, x2 = 0.5427): 0.453 ± 0.0043 mPa·s | viscosity (323.15 K, 101.33 kPa, x2 = 0.7124): 0.443 ± 0.0042 mPa·s | viscosity (323.15 K, 101.33 kPa, x2 = 0.8608): 0.44 ± 0.0042 mPa·s
